Assay results reported in US4902685A, “2-amino-3-cyano-bicyclic pyridines/pyrazines as inhibitors of interleukin 1” (American Home Products Corporation, priority 1988, dated 1990).

System: IL 1-induced release of neutral protease from rabbit articular chondrocytes
Assay: inhibition of IL 1-induced release of neutral protease from rabbit articular chondrocytes (azocoll assay)
Format: cell-based
Details: Oryctolagus cuniculus, Chondrocyte, human IL 1, 24 h, relative to vehicle-treated chondrocytes, read-out: % Inhibition (I.S.D.)
Experimental: The ability of the compounds of the inventions to inhibit interleukin 1 is measured by the ability of the test compounds to inhibit the IL 1-induced release of neutral protease from rabbit articular chondrocytes.
This assay is carried out as follows:
Isolation of rabbit chondrocytes:
Male New Zealand White rabbits are anesthetized with 50 mg/kg of ketamine (i.m.) and killed by an intracardiac injection of 3 mls. of Nembutal. The knee joints of both legs are resected and the articular surfaces are exposed. Cartilate slices are obtained using a scalpel and are placed in a tissue culture dish (100 mm diameter) containing 10 mls of Hank's balanced salt solution (HBSS). The chrondrocytes within the cartilage slices are then liberated by a series of enzyme digestions. The slices are incubated for 10 min. at 37° C. in 0.05% hyaluronidase (Sigma H-3884), rinsed with HBSS and incubated with 0.2% trypsin (Sigma T-2395)for 10 min. at 37° C. The slices are rinsed again and incubated for 10 mins. at 37° C. with 1.2% collagenase (Sigma C-5138). The slices are then rinsed again with HBSS and resuspended in 10 ml of Ham's F-12 medium containing 10% fetal bovine calf serum (FCS) and 0.2% collagenase and incubated overnight at 37° C. in a 5% CO2 incubator. The next day, the medium containing the digested cartilage fragments and liberated chondrocytes is transferred to a 15 ml centrifuge tube and the cells are collected by centrifugation and washed twice and resuspended in Ham's F-12 medium. The cells are then placed into 24-well tissue culture plates (2×10^5 cells/well) and incubated at 37° C. until confluent (usually 4-6 days).
Stimulation of chondrocytes and drug treatment:
The confluent chondrocytes are rinsed twice with serum-free Ham's F-12 medium and 1 ml is added to each well. Fifty μl of purified human IL 1 (100 Units/ml; Genzyme Corporation, Boston, MA) is then added to stimulate these cells to secrete neutral protease. To measure drug effects, the cells are treated with test compound 10 min. prior to addition of IL 1. The standard screening dose is 10 μM. Twenty-four hours after IL 1 stimulation, supernatant fluids are collected and assayed for neutral protease activity.
The neutral protease activity of chrondrocyte supernatant fluids is determined by their ability to degrade an insoluble protease substrate, azocoll (Sigma). Supernatants are treated for 10 min. at room temperature with 350 μM p-aminophenylmercuric acetate to activate the latent enzyme. Three hundred μl of supernatant is then mixed with 500 μl of a 20 mg/ml suspension of azocoll and incubated at 37° C. for 18-24 hrs. with gentle rocking. The mixtures are centrifuged and the amount of substrate hydrolyzed is determined by measuring the absorbance of the supernatant at 520 nm.
Drug effects are calculated as the % change in enzyme activity (absorbance)by supernatants from drug-treated chrondrocytes relative to enzyme activity of supernatants from vehicle-treated chondrocytes as follows: [formula]

| SMILES | inhibition at 10 µM [%] | inhibition at 1 µM (dose 1 μM) [%] |
| --- | --- | --- |
| N#Cc1ccc(N2CCc3nc(N)c(C#N)cc3C2)cc1 [Example 1, 2-Amino-6-(4-cyanophenyl)-5,6,7,8-tetrahydro-1,6-naphthyridine-3-carbonitrile] | 18 |  |
| N#Cc1ccc(N2CCc3nc(N)c(C#N)nc3C2)cc1 [Example 2, 2-Amino-6-(4-cyanophenyl)-5,6,7,8-tetrahydropyrido[3,4-b]pyrazine-3-carbonitrile] | 37 |  |
| CS(=O)(=O)c1ccc(N2CCc3nc(N)c(C#N)cc3C2)cc1 [Example 3, 2-Amino-5,6,7,8-tetrahydro-6-[4-(methylsulfonyl)phenyl]-1,6-naphthyridine-3-carbonitrile] | 59 |  |
| N#Cc1nc2c(nc1N)CCCC2 [Example 4, 2-Amino-5,6,7,8-tetrahydro-3-quinoxalinecarbonitrile] | 41 |  |
| N#Cc1cc2c(nc1N)CCCC2 [Example 5, 2-Amino-5,6,7,8-tetrahydro-3-quinolinecarbonitrile] | 59 | 60 |
